Columns and labels:
[1] = in vivo; for Tolerability after repeated dosing: mouse
[2] = test system: PrP^C on the cell surface of human T98G glioblastoma cells; assay type: cell-based; settings: EC50 ratio

SMILES	Brain concentration relative to the EC50 value determined by ELISA ([1]; female, CD-1, mouse) [×]	Tolerability after repeated dosing [1]	Potency relative to the bromo analog (IND61769) [2] [fold]
COc1ccc(Cl)cc1C(=O)N1CCN(c2cccc(Cl)c2)CC1 [IND30802]	100	well tolerated	–
NC(=O)c1ccccc1NC(=O)c1cccnc1N1CCCCC1 [IND87406]	–	well tolerated	–
O=C(Cc1ccc(-c2ccccc2)cc1)NCc1ccccc1 [IND116065]	–	–	5

Reference: article PMC3984052 (Bioorganic & medicinal chemistry, 2014)
